Assay [1] concerns the target T1, 5-hydroxytryptamine receptor 1A (Rattus norvegicus, UniProt P19327).
T1 sequence (P19327 whole entry): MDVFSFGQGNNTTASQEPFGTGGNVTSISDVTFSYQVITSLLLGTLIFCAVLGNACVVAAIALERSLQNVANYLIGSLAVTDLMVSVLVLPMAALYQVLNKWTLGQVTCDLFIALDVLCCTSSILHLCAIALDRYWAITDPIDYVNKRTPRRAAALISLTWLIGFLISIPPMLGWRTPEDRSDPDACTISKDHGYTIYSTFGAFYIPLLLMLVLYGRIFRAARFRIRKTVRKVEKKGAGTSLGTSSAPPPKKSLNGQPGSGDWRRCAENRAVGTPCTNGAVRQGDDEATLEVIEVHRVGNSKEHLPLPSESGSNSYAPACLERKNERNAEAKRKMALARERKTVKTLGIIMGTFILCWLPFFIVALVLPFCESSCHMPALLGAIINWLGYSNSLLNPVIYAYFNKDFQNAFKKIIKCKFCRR
Put plainly: Displacement of [3H]8OH-DPAT from 5HT1A in rat brain cerebral cortex after 15 mins by scintillation counting. The format is tissue-based. (Displacement assays read how much labelled ligand stays bound in the presence of the test substance.)

In assay [2] the target is 5-hydroxytryptamine receptor 2A (Rattus norvegicus, UniProt P14842). Put plainly: Displacement of [3H]ketanserin from 5HT2A in rat brain cerebral cortex after 20 mins by scintillation counting. The format is tissue-based.
The target in the next assay is D(2) dopamine receptor (Rattus norvegicus, UniProt P61169). Put plainly: Displacement of [3H]spiperone from dopamine D2 receptor in rat striatum tissue after 20 mins by scintillation counting. It is filed as tissue-based.
For assay [3], the system named is Mus musculus. Put plainly: Antipsychotic activity in mouse assessed as reversal of apomorphine-induced mesh climbing response at 2.5 mg/kg, ip administered 10 mins prior to apomorphine challenge measured after 50 mins. It is filed as functional, organism-based. The arrangement: dose 2.5 mg/kg.
Assay [4] concerns Mus musculus. Put plainly: Antipsychotic activity in mouse assessed as reversal of apomorphine-induced mesh climbing response at 2.5 mg/kg, ip administered 10 mins prior to apomorphine challenge measured after 10 mins. The arrangement: dose 2.5 mg/kg. The format is functional, organism-based.
Assay [5] concerns Mus musculus. Put plainly: Antipsychotic activity in mouse assessed as reversal of apomorphine-induced mesh climbing response at 2.5 mg/kg, ip administered 10 mins prior to apomorphine challenge measured after 20 mins. The format is functional, organism-based. The arrangement: dose 2.5 mg/kg.
Assay [6] relates to Mus musculus. Put plainly: Antipsychotic activity in mouse assessed as reversal of apomorphine-induced mesh climbing response at 2.5 mg/kg, ip administered 10 mins prior to apomorphine challenge measured after 30 mins. It is filed as functional, organism-based. The arrangement: dose 2.5 mg/kg.
Assay [7] concerns Mus musculus. Put plainly: Antipsychotic activity in mouse assessed as reversal of apomorphine-induced mesh climbing response at 2.5 mg/kg, ip administered 10 mins prior to apomorphine challenge measured after 60 mins. It is filed as functional, organism-based. The arrangement: dose 2.5 mg/kg.
In assay [8] the test system is Mus musculus. Put plainly: Antipsychotic activity in mouse assessed as reversal of DOI-induced head twitches at 5 mg/kg, ip administered 30 mins before DOI challenge. The conditions noted are these: route intraperitoneal. It is filed as functional.
Assay [9] relates to Mus musculus. Put plainly: Antipsychotic activity in mouse assessed as reversal of DOI-induced head twitches at 10 mg/kg, ip administered 30 mins before DOI challenge. It is filed as functional. The conditions noted are these: route intraperitoneal.
In assay [10] the test system is Mus musculus. Put plainly: Antipsychotic activity in mouse assessed as reversal of DOI-induced head twitches at 20 mg/kg, ip administered 30 mins before DOI challenge. The following applies: route intraperitoneal. The format is functional.
For assay [11], the system named is Mus musculus. Put plainly: Antipsychotic activity in mouse assessed as reversal of apomorphine-induced mesh climbing response at 50 mg/kg, ip administered 20 mins prior to apomorphine challenge measured after 120 mins.
Assay [12] concerns Mus musculus. Put plainly: Antipsychotic activity in mouse assessed as reversal of apomorphine-induced mesh climbing response at 10 mg/kg, ip administered 10 mins prior to apomorphine challenge measured after 40 mins. It is filed as functional, organism-based. The arrangement: dose 10 mg/kg.
Assay [13] has as its system Mus musculus. Put plainly: Antipsychotic activity in mouse assessed as reversal of apomorphine-induced mesh climbing response at 10 mg/kg, ip administered 10 mins prior to apomorphine challenge measured after 20 mins. The format is functional, organism-based. The arrangement: dose 10 mg/kg.
For assay [14], the system named is Mus musculus. Put plainly: Antipsychotic activity in mouse assessed as reversal of apomorphine-induced mesh climbing response at 50 mg/kg, ip administered 10 mins prior to apomorphine challenge measured after 30 mins. It is filed as functional, organism-based. The arrangement: dose 50 mg/kg.

Calls of active or inactive are those of the source. The rule behind the calls is not given here.

D(2) dopamine receptor, sequence (P61169 whole entry): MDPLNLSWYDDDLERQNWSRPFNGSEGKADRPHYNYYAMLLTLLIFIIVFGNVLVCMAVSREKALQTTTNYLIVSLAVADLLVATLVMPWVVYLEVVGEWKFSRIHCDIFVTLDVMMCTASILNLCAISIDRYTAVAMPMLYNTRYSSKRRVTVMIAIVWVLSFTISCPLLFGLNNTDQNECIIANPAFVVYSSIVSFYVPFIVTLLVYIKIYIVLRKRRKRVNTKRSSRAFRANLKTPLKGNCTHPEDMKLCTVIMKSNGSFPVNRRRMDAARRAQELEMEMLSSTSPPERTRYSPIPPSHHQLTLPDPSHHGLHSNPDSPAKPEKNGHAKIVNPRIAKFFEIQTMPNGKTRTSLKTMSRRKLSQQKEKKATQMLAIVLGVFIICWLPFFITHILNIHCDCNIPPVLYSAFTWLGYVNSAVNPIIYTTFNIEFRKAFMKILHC
5-hydroxytryptamine receptor 2A, sequence (P14842 whole entry): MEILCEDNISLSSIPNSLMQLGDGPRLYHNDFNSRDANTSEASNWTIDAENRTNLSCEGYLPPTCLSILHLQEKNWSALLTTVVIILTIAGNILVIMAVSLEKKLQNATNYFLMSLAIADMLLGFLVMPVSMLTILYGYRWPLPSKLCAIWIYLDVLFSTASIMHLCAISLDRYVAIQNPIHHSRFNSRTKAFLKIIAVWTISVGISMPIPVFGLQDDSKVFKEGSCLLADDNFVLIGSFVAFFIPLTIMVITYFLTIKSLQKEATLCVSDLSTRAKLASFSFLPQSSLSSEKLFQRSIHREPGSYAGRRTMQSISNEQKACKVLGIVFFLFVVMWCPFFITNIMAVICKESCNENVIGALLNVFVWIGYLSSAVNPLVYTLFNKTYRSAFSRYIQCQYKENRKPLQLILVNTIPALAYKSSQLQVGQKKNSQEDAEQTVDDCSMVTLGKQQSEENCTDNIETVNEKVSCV

For `COc1cc(C(=O)N[C@H]2CC3CC[C@H](C2)N3Cc2ccco2)cc(OC)c1OC` (single isomer, unassigned), the Ki (usually the dissociation constant of the complex between target and ligand, obtained from inhibition or displacement) in assay [1] worked out at 2.9 µM; in [2], 1100 nM; on D(2) dopamine receptor, 52200 nM.

For `COc1cccc(C(=O)N[C@@H]2CC3CC[C@H](C2)N3Cc2cccnc2)c1OC` (single isomer, unassigned), the Ki in assay [1] was 3.3 µM; in assay [2], 956 nM; at D(2) dopamine receptor, 11.5 nM.

Regarding `O=C(N[C@@H]1CC2CC[C@H](C1)N2Cc1ccccc1)c1cccc2ccccc12` (single isomer, unassigned), the Ki in assay [1] came out at 0.532 µM; in assay [2], 394 nM; at D(2) dopamine receptor, 2900 nM.

In the case of `COc1ccc(Cl)cc1C(=O)N[C@@H]1CC2CC[C@H](C1)N2CC1CCCO1` (single isomer, unassigned), the inhibitory constant (Ki) is 4.6 µM in assay [1], 120 nM in assay [2] and 2400 nM on D(2) dopamine receptor.

As for `CN1CCc2cccc3c2[C@H]1Cc1ccc(O)c(O)c1-3`, the result in the assay on Mus musculus [3], in the assay with Mus musculus [4], in the assay on Mus musculus [5], in the assay with Mus musculus [6] and in the assay on Mus musculus [7] was inactive.

As to `COc1ccccc1C(=O)N[C@H]1CC2CC[C@H](C1)N2Cc1ccco1` (single isomer, unassigned), the values for the inhibition constant (Ki) (in assay [1]; in assay [2]; on D(2) dopamine receptor) were 6.1 µM, 6000 nM and 1000 nM, respectively.

In the case of `O=C(N[C@@H]1CC2CC[C@H](C1)N2CC1CCCO1)c1cccc2ccccc12` (single isomer, unassigned), the Ki in assay [1] turned out to be 3.1 µM; in [2] it was 394 nM; at D(2) dopamine receptor it was 4000 nM.

As for `COc1cccc(C(=O)N[C@@H]2CC3CC[C@H](C2)N3Cc2ccncc2)c1OC` (single isomer, unassigned), the Ki in assay [1] was determined as 2.5 µM; in assay [2], 700 nM; on D(2) dopamine receptor it was 28.3 nM.

As for `O=C(N[C@@H]1CC2CC[C@H](C1)N2CC1CCCO1)c1ccc2ccccc2c1` (single isomer, unassigned), the figures for the Ki (in [1]; in [2]; on D(2) dopamine receptor) were 3.3 µM, 12.3 nM and 1200 nM, respectively. Further, the Activity with Mus musculus [8] was 26%; in the assay on Mus musculus [9], 63%; in the assay on Mus musculus [10], 73%. For the same molecule, the outcome with Mus musculus [11] was Active.

For the molecule `COc1cc(Cl)ccc1C(=O)N[C@H]1CC2CC[C@H](C1)N2Cc1ccco1` (single isomer, unassigned), the inhibitory constant (Ki) in assay [1] was found to be 2.1 µM; in [2] it was 682 nM; at D(2) dopamine receptor it was 174 nM. Moreover, in the assay on Mus musculus [12], the outcome was inactive. Moreover, the Activity with Mus musculus [8] is listed as 40%; in the assay on Mus musculus [9], 40%; in the assay on Mus musculus [10], 45%. In addition, the result in the assay with Mus musculus [11] was Active.

For `COc1ccc(F)cc1C(=O)N[C@H]1C[C@H]2CC[C@@H](C1)N2Cc1ccco1` (stereo in doubt; 14b), the inhibition constant (Ki) was more than 100 µM in assay [1], 7000 nM in assay [2] and 44000 nM on D(2) dopamine receptor.

Regarding `COc1cccc(C(=O)N[C@@H]2CC3CC[C@H](C2)N3Cc2ccco2)c1OC` (single isomer, unassigned; 14a), the Ki in assay [1] is more than 100 µM; in [2], 2500 nM; at D(2) dopamine receptor it was more than 100000 nM.

As to `COc1ccc(C(=O)N[C@H]2CC3CC[C@H](C2)N3Cc2ccco2)c(OC)c1` (single isomer, unassigned), the Ki in assay [1] worked out at 19 µM; in assay [2], 1300 nM; at D(2) dopamine receptor it was 652 nM.

Consider `COc1cccc(C(=O)N[C@@H]2CC3CC[C@H](C2)N3Cc2ccccn2)c1OC` (single isomer, unassigned), for which the results for the inhibitory constant (Ki) (in [1]; in assay [2]; on D(2) dopamine receptor) were 1.4 µM, 1000 nM and 9.3 nM, respectively.

Take `COc1cccc(C(=O)N[C@@H]2CC3CC[C@H](C2)N3Cc2ccco2)c1OC` (single isomer, unassigned; 4b) [listing 1 of 2 here]: the Ki amounted to 3 µM in [1], 745 nM in [2] and 26.3 nM at D(2) dopamine receptor. The Activity was 33% in the assay on Mus musculus [8], 28% in the assay on Mus musculus [9] and 47% in the assay with Mus musculus [10].

Take `COc1ccc(OC)c(C(=O)N[C@H]2CC3CC[C@H](C2)N3Cc2ccco2)c1` (single isomer, unassigned): the Ki in assay [1] came out at 9.6 µM; in assay [2] it was 1100 nM; on D(2) dopamine receptor it was 1100 nM.

As to `COc1ccc(C(=O)N[C@H]2CC3CC[C@H](C2)N3Cc2ccco2)cc1OC` (single isomer, unassigned), the Ki in assay [1] turned out to be 57.3 µM; in [2] it was 7900 nM; on D(2) dopamine receptor, 68800 nM.

`O=C(N[C@H]1CC2CC[C@H](C1)N2Cc1ccco1)c1ccc(Cl)cc1[N+](=O)[O-]` (single isomer, unassigned): the Ki was 16 µM in assay [1], 32000 nM in assay [2] and 19000 nM at D(2) dopamine receptor.

With `COc1cccc(C(=O)N[C@H]2CC3CC[C@H](C2)N3CC2CCCO2)c1` (single isomer, unassigned), the inhibition constant Ki is 10.3 µM in assay [1], 1100 nM in [2] and more than 100000 nM at D(2) dopamine receptor.

Take `COc1ccc(F)cc1C(=O)N[C@H]1CC2CC[C@H](C1)N2Cc1ccco1` (single isomer, unassigned): the Ki in assay [1] is 17.2 µM; in assay [2], 1400 nM; on D(2) dopamine receptor, 507 nM.

Turning to `O=C(N[C@H]1CC2CC[C@H](C1)N2CC1CCCO1)c1ccccc1` (single isomer, unassigned), the Ki in assay [1] was 10.2 µM; in assay [2], 3100 nM; at D(2) dopamine receptor, more than 100000 nM.

Take `O=C(N[C@H]1CC2CC[C@H](C1)N2Cc1ccco1)c1cccc2ccccc12` (single isomer, unassigned): the Ki in [1] was 7.1 µM; in assay [2], 2300 nM; at D(2) dopamine receptor it was 66700 nM.

As for `COc1cccc(C(=O)N[C@@H]2CC3CC[C@H](C2)N3Cc2ccco2)c1OC` (single isomer, unassigned; 4b) [listing 2 of 2 here], in the assay on Mus musculus [13], the result was inactive. In addition, the result with Mus musculus [14] and in the assay on Mus musculus [11] was Active.

As for `COc1ccc(F)cc1C(=O)N[C@@H]1CC2CC[C@H](C1)N2CC1CCCO1` (single isomer, unassigned), the Ki in [1] was determined as 10.1 µM; in [2], 1100 nM; on D(2) dopamine receptor it was 12400 nM.

With `COc1cc(OC)cc(C(=O)N[C@H]2CC3CC[C@H](C2)N3Cc2ccco2)c1` (single isomer, unassigned), the Ki stood at 4.4 µM in [1], 929 nM in [2] and 13200 nM on D(2) dopamine receptor.

The record behind these values is ChEMBL document CHEMBL1833947, “Synthesis and biological investigation of potential atypical antipsychotics with a tropane core. Part 1” (Eur J Med Chem, 2011).
